These compounds were tested against ADAMTS4 (Homo sapiens (Human), UniProt O75173) (assay: Selectivity assay for ADAMTS-7 modulators: ADAMTS4 (FRET substrate)). Conditions: ADAMTS4 (R&D 4307-AD) 50 nM, substrate Dabcyl-EEVKAKVQPY-Glu(Edans)-NH2 1 μM, 120 min, 32° C.
Assay type: biochemical
In short: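 Human ADAMTS4 with compound in DMSO, or DMSO control; reaction started by adding FRET substrate in reaction buffer. Fluorescence increase measured at substrate-specific wavelengths. IC50 derived from % inhibition of enzyme activity versus compound concentration.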

Sequence of ADAMTS4 (O75173 213-685): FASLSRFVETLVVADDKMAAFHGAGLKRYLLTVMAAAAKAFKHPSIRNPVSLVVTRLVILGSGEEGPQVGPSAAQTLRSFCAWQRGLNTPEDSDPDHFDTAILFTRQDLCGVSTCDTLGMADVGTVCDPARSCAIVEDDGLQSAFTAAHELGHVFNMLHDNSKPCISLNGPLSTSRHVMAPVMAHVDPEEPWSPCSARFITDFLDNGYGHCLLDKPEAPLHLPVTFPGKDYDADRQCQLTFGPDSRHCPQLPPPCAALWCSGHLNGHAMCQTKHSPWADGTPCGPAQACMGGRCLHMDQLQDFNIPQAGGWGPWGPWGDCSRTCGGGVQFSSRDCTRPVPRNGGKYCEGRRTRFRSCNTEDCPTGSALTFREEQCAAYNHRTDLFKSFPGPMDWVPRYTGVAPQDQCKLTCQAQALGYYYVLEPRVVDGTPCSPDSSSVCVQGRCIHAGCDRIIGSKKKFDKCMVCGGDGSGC

Question: How did the IC50 turn out when Cn1nccc1C1(CNC(=O)c2ccc(F)cc2-c2ccc(Cl)cc2)NC(=O)NC1=O (single isomer, unassigned; ent-4) [Example 180, Ent-4′-Chloro-5-Fluoro-N-{[4-(1-Methyl-1H-Pyrazol-5-Yl)-2,5-Dioxoimidazolidin-4-Yl]Methyl}[Biphenyl]-2-Carboxamide] was run?
Answer: The IC50 was 17.8 µM.

Question: With O=C1NC(=O)C(CNC(=O)c2ccccc2-c2ccc(C(F)(F)F)cc2)(C2CCCC2)N1 (racemic) [Example 48, Rac-N-[(4-Cyclopentyl-2,5-Dioxoimidazolidin-4-Yl)Methyl]-4′-(Trifluoromethyl)[Biphenyl]-2-Carboxamide] as the compound, how does the IC50 read?
Answer: Its IC50 is greater than 50 µM.

Question: How did the IC50 turn out when Cc1ccc(C(=O)NC[C@@]2(C3CC3)NC(=O)NC2=O)c(-c2ccc(C(F)(F)F)cc2)c1 [Example 218, N-{[(4R)-4-Cyclopropyl-2,5-Dioxoimidazolidin-4-Yl]Methyl}-5-Methyl-4′-(Trifluoromethyl)[Biphenyl]-2-Carboxamide] was run?
Answer: Its IC50 is 4 µM.

Question: O=C1NC(=O)C(CNC(=O)c2cc(F)ccc2-c2ccc(C(F)(F)F)cc2)(c2ncsc2C(F)(F)F)N1 (racemic) [Example 265, Rac-N-({2,5-Dioxo-4-[5-(Trifluoromethyl)-1,3-Thiazol-4-Yl]Imidazolidin-4-Yl}Methyl)-4-Fluoro-4′-(Trifluoromethyl)[Biphenyl]-2-Carboxamide] was tested. Which IC50 did it give?
Answer: Its IC50 is 9.1 µM.

Question: With O=C1NC(=O)[C@](CNC(=O)c2ccc(C(F)(F)F)cc2-c2ccc(Cl)cc2)(C2CC2)N1 [Example 89, 4′-Chloro-N-{[(4R)-4-Cyclopropyl-2,5-Dioxoimidazolidin-4-Yl]Methyl}-5-(Trifluoromethyl)[1,1′-Biphenyl]-2-Carboxamide] as the compound, how does the IC50 read?
Answer: Its IC50 is 7.6 µM.

Question: How did the IC50 turn out when Cc1ccc(C(=O)NCC2(c3ncsc3C)NC(=O)NC2=O)c(-c2ccc(C(F)(F)F)cc2)c1 (single isomer, unassigned; ent-5) [Example 168, Ent-5-Methyl-N-{[4-(5-Methyl-1,3-Thiazol-4-Yl)-2,5-Dioxoimidazolidin-4-Yl]Methyl}-4′-(Trifluoromethyl)[Biphenyl]-2-Carboxamide] was run?
Answer: The IC50 was 1.9 µM.

Question: Which IC50 does the source give for Cc1nc(C)c(C2(CNC(=O)c3ccccc3-c3ccc(C(F)(F)F)nc3)NC(=O)NC2=O)s1 (stereo not drawn) [Example 74, Ent-N-{[4-(2,4-Dimethyl-1,3-Thiazol-5-Yl)-2,5-Dioxoimidazolidin-4-Yl]Methyl}-2-[6-(Trifluoromethyl)Pyridin-3-Yl]Benzamide] here?
Answer: Its IC50 is 5.2 µM.

Question: With O=C1NC(=O)C(CNC(=O)c2ccc(F)cc2-c2ccc(C(F)(F)F)cc2)(C2(Cl)CC2)N1 (racemic) [Example 282, Rac-N-{[4-(1-Chlorocyclopropyl)-2,5-Dioxoimidazolidin-4-Yl]Methyl}-5-Fluoro-4′-(Trifluoromethyl)[Biphenyl]-2-Carboxamide] as the compound, how does the IC50 read?
Answer: Its IC50 is 16 µM.

Question: With O=C1NC(=O)[C@](CNC(=O)c2ccccc2-c2ccc(C(F)(F)F)nc2)(C2CC2)N1 [Example 224, N-{[(4R)-4-Cyclopropyl-2,5-Dioxoimidazolidin-4-Yl]Methyl}-2-[6-(Trifluoromethyl)Pyridin-3-Yl]Benzamide] as the compound, how does the IC50 read?
Answer: Its IC50 is 19 µM.

Question: How did the IC50 turn out when Cn1cncc1C1(CNC(=O)c2ccccc2-c2ccc(C(F)(F)F)nc2)NC(=O)NC1=O (racemic) [Example 285, Rac-N-{[4-(1-Methyl-1H-Imidazol-5-Yl)-2,5-Dioxoimidazolidin-4-Yl]Methyl}-2-[6-(Trifluoromethyl)Pyridin-3-Yl]Benzamide] was run?
Answer: Its IC50 is 6.6 µM.

Question: With Cc1nn(C)cc1C1(CNC(=O)c2ccccc2-c2ccc(C(F)(F)F)cc2)NC(=O)NC1=O (stereo not drawn) [Example 87, Ent-N-{[4-(1,3-Dimethyl-1H-Pyrazol-4-Yl)-2,5-Dioxoimidazolidin-4-Yl]Methyl}-4′-(Trifluoromethyl)[Biphenyl]-2-Carboxamide] as the compound, how does the IC50 read?
Answer: The IC50 was 6.9 µM.

Question: Which IC50 does the source give for O=C1NC(=O)[C@](CNC(=O)c2ccc(F)c(F)c2-c2ccc(C(F)(F)F)nc2)(C2CC2)N1 [Example 76, N-{[(4R)-4-Cyclopropyl-2,5-Dioxoimidazolidin-4-Yl]Methyl}-3,4-Difluoro-2-[6-(Trifluoromethyl)Pyridin-3-Yl]Benzamide] here?
Answer: The IC50 was 14 µM.

Question: For Cc1ccc(C(=O)NCC2(C(C)C)NC(=O)NC2=O)c(-c2ccc(C(F)(F)F)cc2)c1 (stereo not drawn) [Example 203, Ent-N-[(4-Isopropyl-2,5-Dioxoimidazolidin-4-Yl)Methyl]-5-Methyl-4′-(Trifluoromethyl)[Biphenyl]-2-Carboxamide], which IC50 is on record?
Answer: The IC50 was 46 µM.

Question: How did the IC50 turn out when Cc1cn(C)nc1C1(CNC(=O)c2ccccc2-c2ccc(C(F)(F)F)nc2)NC(=O)NC1=O (stereo not drawn) [Example 72, Ent-N-{[4-(1,4-Dimethyl-1H-Pyrazol-3-Yl)-2,5-Dioxoimidazolidin-4-Yl]Methyl}-2-[6-(Trifluoromethyl)Pyridin-3-Yl]Benzamide] was run?
Answer: Its IC50 is 6.9 µM.

Question: For O=C1NC(=O)[C@](CNC(=O)c2ccccc2-c2ccc(CC(F)(F)F)cc2)(C2CC2)N1 [Example 119, N-{[(4R)-4-Cyclopropyl-2,5-Dioxoimidazolidin-4-Yl]Methyl}-4′-(2,2,2-Trifluoroethyl)[Biphenyl]-2-Carboxamide], which IC50 is on record?
Answer: The IC50 was 9.1 µM.

Question: With O=C1NC(=O)[C@](CNC(=O)c2ccncc2-c2ccc(Cl)cc2)(C2CC2)N1 [Example 56, 3-(4-Chlorophenyl)-N-{[(4R)-4-Cyclopropyl-2,5-Dioxoimidazolidin-4-Yl]Methyl}Isonicotinamide] as the compound, how does the IC50 read?
Answer: The IC50 was 31 µM.

Question: O=C1NC(=O)C(CNC(=O)c2ccc(F)cc2-c2ccc(C(F)(F)F)cc2)(C2(F)CC2)N1 (racemic) [Example 252, Rac-5-Fluoro-N-{[4-(1-Fluorocyclopropyl)-2,5-Dioxoimidazolidin-4-Yl]Methyl}-4′-(Trifluoromethyl)[Biphenyl]-2-Carboxamide] was tested. Which IC50 did it give?
Answer: The IC50 was 41 µM.

Question: O=C1NC(=O)C(CNC(=O)c2ccccc2-c2ccc(Cl)cc2)(C2CC(F)(F)C2)N1 (single isomer, unassigned; ent-4) [Example 247, Ent-4′-Chloro-N-{[4-(3,3-Difluorocyclobutyl)-2,5-Dioxoimidazolidin-4-Yl]Methyl}[Biphenyl]-2-Carboxamide] was tested. Which IC50 did it give?
Answer: Its IC50 is greater than 50 µM.

Question: How did the IC50 turn out when O=C1NC(=O)C(CNC(=O)c2ccc(F)cc2-c2ccc(C(F)(F)F)cc2)(C2CCC2)N1 (stereo not drawn) [Example 239, Ent-N-[(4-Cyclobutyl-2,5-Dioxoimidazolidin-4-Yl)Methyl]-5-Fluoro-4′-(Trifluoromethyl)[Biphenyl]-2-Carboxamide] was run?
Answer: Its IC50 is greater than 50 µM.

Question: For Cc1ccc(-c2cnccc2C(=O)NC[C@@]2(C3CC3)NC(=O)NC2=O)cc1 [Example 19, N-{[(4R)-4-Cyclopropyl-2,5-Dioxoimidazolidin-4-Yl]Methyl}-3-(4-Methylphenyl)Isonicotinamide], which IC50 is on record?
Answer: The IC50 was greater than 50 µM.

Question: With O=C1NC(=O)C(CNC(=O)c2ccc(F)cc2-c2ccc(C(F)(F)F)cc2)(c2cscn2)N1 (racemic) [Example 198, Rac-N-{[2,5-Dioxo-4-(1,3-Thiazol-4-Yl)Imidazolidin-4-Yl]Methyl}-5-Fluoro-4′-(Trifluoromethyl)[Biphenyl]-2-Carboxamide] as the compound, how does the IC50 read?
Answer: Its IC50 is 39 µM.

Question: How did the IC50 turn out when O=C1NC(=O)C(CNC(=O)c2ccccc2-c2ccc(C(F)(F)F)cc2)(C2CCC2)N1 (stereo not drawn) [Example 237, Ent-N-[(4-Cyclobutyl-2,5-Dioxoimidazolidin-4-Yl)Methyl]-4′-(Trifluoromethyl)[Biphenyl]-2-Carboxamide] was run?
Answer: Its IC50 is greater than 50 µM.

Question: Cn1nccc1C1(CNC(=O)c2ccccc2-c2ccc(C(F)(F)F)cc2)NC(=O)NC1=O (stereo not drawn) [Example 185, Ent-N-{[4-(1-Methyl-1H-Pyrazol-5-Yl)-2,5-Dioxoimidazolidin-4-Yl]Methyl}-4′-(Trifluoromethyl)[Biphenyl]-2-Carboxamide] was tested. Which IC50 did it give?
Answer: The IC50 was 16.5 µM.

Question: For Cc1scnc1C1(CNC(=O)c2ccccc2-c2ccc(C(F)(F)F)cc2)NC(=O)NC1=O (single isomer, unassigned) [Example 2, Ent-N-{[4-(5-Methyl-1,3-Thiazol-4-Yl)-2,5-Dioxoimidazolidin-4-Yl]Methyl}-4′-(Trifluoromethyl)[Biphenyl]-2-Carboxamide], which IC50 is on record?
Answer: Its IC50 is greater than 50 µM.

Question: Which IC50 does the source give for Cc1nc(C)c(C2(CNC(=O)c3ccccc3-c3ccc(C(F)(F)F)nc3)NC(=O)NC2=O)s1 (racemic) [Example 34, Rac-N-{[4-(2,4-Dimethyl-1,3-Thiazol-5-Yl)-2,5-Dioxoimidazolidin-4-Yl]Methyl}-2-[6-(Trifluoromethyl)Pyridin-3-Yl]Benzamide] here?
Answer: Its IC50 is 8.9 µM.

Question: For O=C1NC(=O)C(CNC(=O)c2ccc(F)cc2-c2ccc(C(F)(F)F)cc2)(c2ccnn2C(F)F)N1 (stereo not drawn) [Example 296, Ent-N-({4-[1-(Difluoromethyl)-1H-Pyrazol-5-Yl]-2,5-Dioxoimidazolidin-4-Yl}Methyl)-5-Fluoro-4′-(Trifluoromethyl)[Biphenyl]-2-Carboxamide], which IC50 is on record?
Answer: Its IC50 is 9.5 µM.

Question: O=C1NC(=O)[C@](CNC(=O)c2ccccc2-c2ccc(C3(C(F)(F)F)CC3)cc2)(C2CC2)N1 [Example 115, N-{[(4R)-4-Cyclopropyl-2,5-Dioxoimidazolidin-4-Yl]Methyl}-4′-[1-(Trifluoromethyl)Cyclopropyl][Biphenyl]-2-Carboxamide] was tested. Which IC50 did it give?
Answer: Its IC50 is 7.8 µM.

Question: Which IC50 does the source give for Cc1nscc1C1(CNC(=O)c2ccccc2-c2ccc(C(F)(F)F)nc2)NC(=O)NC1=O (racemic) [Example 49, Rac-N-{[4-(3-Methyl-1,2-Thiazol-4-Yl)-2,5-Dioxoimidazolidin-4-Yl]Methyl}-2-[6-(Trifluoromethyl)Pyridin-3-Yl]Benzamide] here?
Answer: The IC50 was 22 µM.

Question: Which IC50 does the source give for Cc1ccc(C(=O)NCC2(c3nccn3C)NC(=O)NC2=O)c(-c2ccc(C(F)(F)F)cc2)c1C (single isomer, unassigned; ent-5) [Example 287, Ent-5,6-Dimethyl-N-{[4-(1-Methyl-1H-Imidazol-2-Yl)-2,5-Dioxoimidazolidin-4-Yl]Methyl}-4′-(Trifluoromethyl)[Biphenyl]-2-Carboxamide] here?
Answer: The IC50 was 0.16 µM.

Question: Which IC50 does the source give for O=C1NC(=O)C(CNC(=O)c2cccc(F)c2-c2ccc(C(F)(F)F)cc2)(C2(F)CC2)N1 (single isomer, unassigned; ent-6) [Example 300, Ent-6-Fluoro-N-{[4-(1-Fluorocyclopropyl)-2,5-Dioxoimidazolidin-4-Yl]Methyl}-4′-(Trifluoromethyl)[Biphenyl]-2-Carboxamide] here?
Answer: The IC50 was 23 µM.

— patent publication US12398120B2, “Substituted hydantoinamides as ADAMTS7 antagonists” (BAYER AKTIENGESELLSCHAFT, priority 2019, dated 2025)
